Earlier results as cited in patent publication US12509462B2, “3-(phenylsulfonyl)-[1,2,3]triazolo[1,5A]quinazolin-5(4H)-one derivatives” (BIOVERSYS AG, priority 2018, dated 2025).

Tested on: hla, psmα and pvl
Settings: across all four agr groups; cited from earlier work

CC(C)c1ccc(S(=O)(=O)c2nnn3c2nc(O)c2ccccc23)cc1 [Savirin, reference compound]
Modulation of AgrA-regulated toxin gene transcription such as hla, psmα and pvl: potent modulator
